Entries after “also recorded” stand apart in the source; their conditions may differ. Read-outs that look alike come from different tables or passages of the source.
Tests used:
Nurr1 LBD Arg563Ala = biological target: T1, Nurr1 LBD Arg563Ala (Homo sapiens, UniProt P43354, R563A); assay: MST binding to Arg563Ala mutant Nurr1 LBD; conditions: for Amplitude: Table 1, MST amplitude, R563A; for Response Amplitude: Table 2, MST, Arg563Ala
T1 construct: Mutants of LAP2 Nurr1 were prepared by GenScript starting from LAP2 Nurr1 vector; made in house
T1 sequence (P43354 with tags, fused parts or gaps R563A): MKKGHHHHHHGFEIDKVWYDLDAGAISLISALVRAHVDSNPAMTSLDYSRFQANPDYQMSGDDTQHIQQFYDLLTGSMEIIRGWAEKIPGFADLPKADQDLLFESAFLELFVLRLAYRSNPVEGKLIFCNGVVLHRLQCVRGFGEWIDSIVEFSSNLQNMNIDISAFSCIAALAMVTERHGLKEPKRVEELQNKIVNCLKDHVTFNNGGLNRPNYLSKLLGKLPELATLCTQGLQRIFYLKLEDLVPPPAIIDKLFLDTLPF
Method: (§1) The plasmid used for the expression of LAP2-tagged Nurr1 LBDs (LAP2 Nurr1) was prepared by GenScript (Piscataway, N.J.) as the product of gene synthesis and subcloning into pET-21a(+) Vector (GenScript) using the Ndel and Xhol sites within the MCS. Mutants of LAP2 Nurr1 were prepared by GenScript starting from LAP2 Nurr1 vector.
(§2) Concentration-dependent association of the indoles with the Nurr1 LBD was carried out using microscale thermophoresis. Stock solutions (10 mM in DMSO) of each indole were serially diluted (200 μM indole, 0.5× dilutions down to 0.0061 μM) in MST buffer (25 mM HEPES, pH 7.4, 150 mM NaCl, and 0.1% Pluronic F127) containing 2% DMSO. The dilutions were carried out with 4% DMSO in the MST buffer for a total of 16 concentrations. Equivalent volumes and concentrations of the fluorescently labeled Nurr1 LBD in MST buffer were added to each ligand dilution in the series to reach a final concentration of 75 nM labeled protein. After incubating for 20 minutes, the samples were loaded into Monolith NT.115 Capillaries (Nanotemper).
(§3) Data were collected using the Monolith NT.115 System (Nanotemper), with settings for all samples at 40% excitation power and 40% MST power. The initial fluorescence was recorded for 3 sec and the thermophoresis fluorescence response was recorded for 20 sec. The data was inspected with Palmist software^5, and data points affected by initial fluorescence quenching or photobleaching were eliminated. The fluorescent response for each sample was normalized to the initial fluorescence using Palmist software to provide the values of thermophoresis (Fn). The resulting data was used to generate a plot of the change in thermophoresis (Fn-Fn0, where Fn=thermophoresis and Fn0=thermophoresis response in unbound range) versus concentration of the ligand. GraphPad Prism v. 8.3.0 software was used to fit the resulting data to a mass action equation for a specific binding with Hill slope, solving for KD: Fn-Fn0═Fmax·[L]^n/(KD^n+[L]^n), where Fmax=maximum amplitude of thermophoresis, [L]=concentration of the ligand at a specific point, KD=dissociation constant, nH=Hill Coefficient.

Nurr1 LBD His516Ala = biological target: T2, Nurr1 LBD His516Ala (Homo sapiens, UniProt P43354, H516A); assay: MST binding to His516Ala mutant Nurr1 LBD; conditions: for Amplitude (% change) / KD (% change): Table 1, H516 relative to WT; for Amplitude: Table 1, MST amplitude, H516; for Response Amplitude: Table 2, MST, His516Ala
T2 construct: Mutants of LAP2 Nurr1 were prepared by GenScript starting from LAP2 Nurr1 vector; made in house
Method: as §1, §2, §3

[1] = tested on: Nurr1 target genes Th and Vmat2 in MN9D cells; assay: Target gene transcription assay (qPCR) in MN9D cells; assay type: cell-based, mouse; conditions: for Expression of Th, fold-change relative to vehicle (DMSO) / Expression of Vmat2, fold-change relative to vehicle (DMSO): 10 μM, 24 h, normalized to Hprt
Method: Target Gene Transcription Assays. These assays were carried out using standard protocols. MN9D TET-ON frozen cell stocks (P5) were thawed and grown for 60-72 h on poly-D-lysine pre-treated culture dishes (100 mm) in Dulbecco's Modified Eagle Medium/Nutrient Mixture F-12 (DMEM/F-12; Gibco) supplemented with 5% Tet System Approved FBS (Takara Bio USA) at 37° C., 5% C02 to ˜80% confluency. The resulting cells were then trypsinized with 0.25% Trypsin-EDTA (Gibko) and diluted to 2·10^5 cells/ml with fresh medium. The resulting cell suspension (0.8 mL) was added to 2× concentrated compound in the same medium containing 0.2% DMSO (0.8 mL) in an Eppendorf tube. The cell suspension with compound or vehicle (DMSO) was then seeded onto a 24-well plate pre-treated with Poly-D-Lysine at 0.8 mL per well. Assays were performed under conditions of basal Nurr1 expression, without induction of additional Nurr1 expression using doxycycline.
After 24 h, total RNA was extracted the cells in each well using the Quick-RNA MiniPrep Plus Kit (Zymo Research), according to the manufacturer's instructions. The cDNA was then synthesized from 1000 ng of purified RNA using High-Capacity cDNA Reverse Transcription Kit (Applied Biosystems) and used as template. The qPCR as performed using iTaq Universal SYBR Green Supermix (BioRad) and CFX96 Real-Time Detection System machine (BioRad). Briefly, qPCR was performed in hard-shell 96-well PCR plates (BioRad) using cDNA corresponding to 8.75 ng of starting total RNA in a volume of 15 μl, containing 7.5 μl of SYBR Green Supermix, and 1 μL of 10 μM forward and reverse primers. Cycling parameters for qPCR included an initial denaturation at 95° C. for 3 min, followed by 40 cycles of 95° C. for 5 s and annealing at 56° C. for 30 s. The forward and reverse primers (Table 4) were ordered from IDT. Gene expression was quantified by the comparative2-ΔΔCt method, with the mouse housekeeping gene hypoxanthine-guanine phosphoribosyltransferase (Hprt) used as internal reference to determine the relative mRNA expression. Transcript levels for target genes were normalized to the housekeeping gene Hprt and fold change was compared to gene expression levels from vehicle (DMSO) only treated cells. GraphPad Prism 8 software was used for statistical analysis. Two-way ANOVA was applied for DMSO fold change vs compound. Results are from three independent experiments. Relative average expression±SD; *p<0.05, **p<0.01, ***p<0.001, ****p<0.0001 by ANOVA in comparison expression with 0 μM compound (DMSO only).

Nurr1 LBD (wildtype) = biological target: T3, Nurr1 LBD (wildtype) (Homo sapiens, UniProt P43354); assay: Microscale thermophoresis (MST) binding to wildtype Nurr1 LBD; conditions: for Binding to the Nurr1 LBD (in words): MST; for Kd: read-out: KD; for Amplitude: Table 1, MST amplitude, WT; for Response Amplitude: Table 2, MST, Wildtype
T3 construct: made in house
Method: as §2, §3
To investigate the potential impact of compound nano-aggregation on binding affinity, we used dynamic light scattering to inspect the aggregation of 5-chlorindole in solution and repeated the MST binding experiments in the presence of increasing concentrations of the surfactant Pluoronic F127 (FIGS. 12A-12D). […] As well, increasing concentrations of the surfactant Pluronic F127 had small effects (<2-fold) on the affinity of 5-chloroindole for the Nurr1 LBD (FIGS. 12A-12D).

[2] = Table 1, Nurr1 variant H516, read-out: KD
[3] = Table 2, His516Ala, read-out: Affinity (KD)

T2 sequence (P43354 with tags, fused parts or gaps H516A): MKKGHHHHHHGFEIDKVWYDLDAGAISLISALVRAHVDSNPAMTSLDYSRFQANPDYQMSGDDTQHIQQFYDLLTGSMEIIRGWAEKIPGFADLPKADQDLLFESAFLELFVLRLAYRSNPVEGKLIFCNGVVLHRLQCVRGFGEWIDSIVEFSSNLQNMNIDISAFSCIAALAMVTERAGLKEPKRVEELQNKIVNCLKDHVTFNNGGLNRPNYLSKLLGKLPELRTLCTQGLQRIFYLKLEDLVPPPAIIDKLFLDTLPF
T3 sequence (P43354 with tags, fused parts or gaps): as the sequence (P43354 with tags, fused parts or gaps H516A) above, with A180H counted along it

| SMILES | Amplitude (Nurr1 LBD Arg563Ala) | Amplitude (% change) (Nurr1 LBD Arg563Ala; Table 1, R563A relative to WT) [%] | Response Amplitude (Nurr1 LBD Arg563Ala) | Amplitude (% change) (Nurr1 LBD His516Ala) [%] | KD (% change) (Nurr1 LBD His516Ala) | Amplitude (Nurr1 LBD His516Ala) | Kd (Nurr1 LBD His516Ala; [2]) [µM] | Kd (Nurr1 LBD His516Ala; [3]) [µM] | Response Amplitude (Nurr1 LBD His516Ala) | Effect on expression of Nurr1 target genes Th and Vmat2 (in words) [1] | Expression of Th, fold-change relative to vehicle (DMSO) [1] [fold] | Expression of Vmat2, fold-change relative to vehicle (DMSO) [1] [fold] | Binding to the Nurr1 LBD (in words) (Nurr1 LBD (wildtype)) | Kd (Nurr1 LBD (wildtype); Nurr1 LBD) [µM] | Amplitude (Nurr1 LBD (wildtype)) | Kd (Nurr1 LBD (wildtype); Table 1, Nurr1 variant WT) [µM] | Response Amplitude (Nurr1 LBD (wildtype)) | also measured |
| --- | --- | --- | --- | --- | --- | --- | --- | --- | --- | --- | --- | --- | --- | --- | --- | --- | --- | --- |
| Brc1ccc2[nH]ccc2c1 [5-bromoindole] | ≤10 | ≥−86 | ≤10 (****) | −43 | +10% | 41 + 5 | 11 | 7.3 | 33 + 5 (*) | upregulating the expression; also recorded: supports the transcription | 2.2 | 2.5 | saturable binding | 5 | 72 + 8 | 10 | 50 + 4 | Binding to Arg563Ala mutant Nurr1 LBD (in words) (Nurr1 LBD Arg563Ala; MST): completely eliminated; Binding affinity for His516Ala mutant versus wildtype (in words) (Nurr1 LBD His516Ala; MST): statistically unchanged; Amplitude (% change) (Nurr1 LBD (wildtype); Table 1, WT (reference)): 0 |
| Clc1ccc2[nH]ccc2c1 [5-chloroindole] | 23 + 2 | −66 | 19 + 2 (****) | −50 | −36% | 34 + 4 | 16 | 8.6 | 25 + 2 (****) | concentration dependent; also recorded: upregulating the expression; also recorded: supports the transcription; also recorded: superior to that of DHI | 1.8 | 2.4 | saturable binding; also recorded: comparable to DHI | 15 | 68 + 4 | 25 | 54 + 2 | Kd (Nurr1 LBD Arg563Ala; Table 1, Nurr1 variant R563A, read-out: KD): 13 µM; KD (% change) (Nurr1 LBD Arg563Ala; Table 1, R563A relative to WT): −48%; Kd (Nurr1 LBD Arg563Ala; Table 2, Arg563Ala, read-out: Affinity (KD)): 8.3 µM; Hill coefficient nH (Nurr1 LBD (wildtype); 0.1% Pluronic F127): 2; Hill coefficient nH (Nurr1 LBD (wildtype); 0.2% Pluronic F127): 2; Kd (Nurr1 LBD (wildtype); 0.2% Pluronic F127): 8.3 ± 0.7 µM; Hill coefficient nH (Nurr1 LBD (wildtype); 0.5% Pluronic F127): 1; Kd (Nurr1 LBD (wildtype); 0.5% Pluronic F127): 10.9 ± 0.3 µM; Hill coefficient nH (Nurr1 LBD (wildtype); 1.0% Pluronic F127): 1; Kd (Nurr1 LBD (wildtype); 1.0% Pluronic F127): 9.1 ± 0.4 µM |

Reference: patent US20230255934A1, “NURR1 RECEPTOR MODULATORS AND USES THEREOF” (The Regents of the University of California, priority 2020, published 2023)
